Measurements taken from ChEMBL document CHEMBL2074266, “Molecular cloning and characterization of multispecific organic anion transporter 4 expressed in the placenta” (J Biol Chem, 2000).

Columns and labels:
[1] = target: T1, Solute carrier family 22 member 11 (Homo sapiens, UniProt Q9NSA0); assay: (§1) TP_TRANSPORTER: uptake in Xenopus laevis oocytes; format: functional, cell-based; conditions: oocyte
T1 sequence (Q9NSA0 whole entry): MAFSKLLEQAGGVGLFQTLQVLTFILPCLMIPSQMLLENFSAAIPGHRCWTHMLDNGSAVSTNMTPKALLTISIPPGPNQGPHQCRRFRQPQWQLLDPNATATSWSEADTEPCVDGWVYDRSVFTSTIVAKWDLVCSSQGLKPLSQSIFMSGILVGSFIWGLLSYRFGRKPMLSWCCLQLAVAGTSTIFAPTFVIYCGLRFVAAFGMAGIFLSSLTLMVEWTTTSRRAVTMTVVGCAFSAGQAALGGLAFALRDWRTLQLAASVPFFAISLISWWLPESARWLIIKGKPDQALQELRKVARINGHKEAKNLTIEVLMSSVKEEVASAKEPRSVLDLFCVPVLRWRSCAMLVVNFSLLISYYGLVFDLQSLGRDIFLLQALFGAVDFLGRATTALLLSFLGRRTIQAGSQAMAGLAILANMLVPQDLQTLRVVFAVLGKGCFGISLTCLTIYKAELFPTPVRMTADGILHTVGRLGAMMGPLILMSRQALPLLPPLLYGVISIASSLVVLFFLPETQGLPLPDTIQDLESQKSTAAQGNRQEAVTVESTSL

[2] = target: T1, Solute carrier family 22 member 11; assay: TP_TRANSPORTER: inhibition of E1S uptake (E1S: 0.05 uM, Corticosterone: 500 uM) in Xenopus laevis oocytes; format: functional, cell-based; conditions: oocyte
[3] = target: T1, Solute carrier family 22 member 11; assay: TP_TRANSPORTER: inhibition of E1S uptake (E1S: 0.05 uM, beta-estradiol sulfate: 500 uM) in Xenopus laevis oocytes; format: functional, cell-based; conditions: oocyte
[4] = target: T1, Solute carrier family 22 member 11; assay: TP_TRANSPORTER: inhibition of E1S uptake (E1S: 0.05 uM, 4-methylumbeliferone glucuronide: 500 uM) in Xenopus laevis oocytes; format: functional, cell-based; conditions: oocyte
[5] = target: T1, Solute carrier family 22 member 11; assay: TP_TRANSPORTER: inhibition of E1S uptake (E1S: 0.05 uM, Bumetanide: 500 uM) in Xenopus laevis oocytes; format: functional, cell-based; conditions: oocyte
[6] = target: T1, Solute carrier family 22 member 11; assay: TP_TRANSPORTER: inhibition of E1S uptake (E1S: 0.05 uM, Glutarate: 500 uM) in Xenopus laevis oocytes; format: functional, cell-based; conditions: oocyte
[7] = target: T1, Solute carrier family 22 member 11; assay: TP_TRANSPORTER: inhibition of E1S uptake (E1S: 0.05 uM, Furosemide: 500 uM) in Xenopus laevis oocytes; format: functional, cell-based; conditions: oocyte
[8] = target: T1, Solute carrier family 22 member 11; assay: TP_TRANSPORTER: inhibition of E1S uptake (E1S: 0.05 uM, p-Nitrophenyl glucuronide: 500 uM) in Xenopus laevis oocytes; format: functional, cell-based; conditions: oocyte
[9] = target: T1, Solute carrier family 22 member 11; assay: TP_TRANSPORTER: inhibition of E1S uptake (E1S: 0.05 uM, Diclofenac: 500 uM) in Xenopus laevis oocytes; format: functional, cell-based; conditions: oocyte
[10] = target: T1, Solute carrier family 22 member 11; assay: TP_TRANSPORTER: inhibition of E1S uptake (E1S: 0.05 uM, DHEAS: 500 uM) in Xenopus laevis oocytes; format: functional, cell-based; conditions: oocyte
[11] = target: T1, Solute carrier family 22 member 11; assay: TP_TRANSPORTER: inhibition of E1S uptake (E1S: 0.05 uM, BSP: 100 uM) in Xenopus laevis oocytes; format: functional, cell-based; conditions: oocyte
[12] = target: T1, Solute carrier family 22 member 11; assay: TP_TRANSPORTER: inhibition of E1S uptake (E1S: 0.05 uM, Acetaminophen glucuronide: 500 uM) in Xenopus laevis oocytes; format: functional, cell-based; conditions: oocyte
[13] = target: T1, Solute carrier family 22 member 11; assay: TP_TRANSPORTER: inhibition of E1S uptake (E1S: 0.05 uM, alpha-naphthyl beta-D-glucuronide: 500 uM) in Xenopus laevis oocytes; format: functional, cell-based; conditions: oocyte
[14] = target: T1, Solute carrier family 22 member 11; assay: TP_TRANSPORTER: inhibition of E1S uptake (E1S: 0.05 uM, beta-Estradiol: 500 uM) in Xenopus laevis oocytes; format: functional, cell-based; conditions: oocyte
[15] = target: T1, Solute carrier family 22 member 11; assay: TP_TRANSPORTER: inhibition of E1S uptake (E1S: 0.05 uM, 4-methylumbelliferyl sulfate: 500 uM) in Xenopus laevis oocytes; format: functional, cell-based; conditions: oocyte
[16] = target: T1, Solute carrier family 22 member 11; assay: TP_TRANSPORTER: inhibition of E1S uptake (E1S: 0.05 uM, Ibuprofen: 500 uM) in Xenopus laevis oocytes; format: functional, cell-based; conditions: oocyte
[17] = target: T1, Solute carrier family 22 member 11; assay: TP_TRANSPORTER: inhibition of E1S uptake (E1S: 0.05 uM, Indomethacin: 500 uM) in Xenopus laevis oocytes; format: functional, cell-based; conditions: oocyte
[18] = target: T1, Solute carrier family 22 member 11; assay: TP_TRANSPORTER: inhibition of E1S uptake (E1S: 0.05 uM, Estradiol-3-glucuronide: 500 uM) in Xenopus laevis oocytes; format: functional, cell-based; conditions: oocyte
[19] = substrate: [H][C@@]12CC=C3C[C@@H](OS(=O)(=O)O)CC[C@]3(C)[C@@]1([H])CC[C@]1(C)C(=O)CC[C@@]21[H]; assay: as §1; format: functional, cell-based, Oocyte
[20] = substrate: C[C@]12CC[C@@H]3c4ccc(OS(=O)(=O)O)cc4CC[C@H]3[C@@H]1CCC2=O; assay: as §1; format: functional, cell-based, Oocyte

In the case of C[C@@H]1Cc2c(Cl)cc(C(=O)N[C@@H](Cc3ccccc3)C(=O)O)c(O)c2C(=O)O1 [3R14S-OCHRATOXIN A], the Activity [1] is reported as “substrate [+]”.

C[C@]12C[C@H](O)[C@H]3[C@@H](CCC4=CC(=O)CC[C@@]43C)[C@@H]1CC[C@@H]2C(=O)CO [CORTICOSTERONE] was tested, and the Activity [2] was “inhibitor [(at a rough estimate) 30 % of control]”.

For C[C@]12CC[C@@H]3c4ccc(OS(=O)(=O)O)cc4CC[C@H]3[C@@H]1CC[C@@H]2O, the Activity [3] was “inhibitor [(at a rough estimate) 25 % of control]”.

O=C(O)[C@H]1O[C@@H](OCc2cc(=O)oc3cc(O)ccc23)[C@H](O)[C@@H](O)[C@@H]1O was tested, and the Activity [4] was “is not an inhibitor [-]”.

For CCCCNc1cc(C(=O)O)cc(S(N)(=O)=O)c1Oc1ccccc1 [BUMETANIDE], the Activity [5] was “inhibitor [(at a rough estimate) 15 % of control]”.

With O=C(O)CCCC(=O)O [GLUTARATE] the Activity [6] was “is not an inhibitor [-]”.

NS(=O)(=O)c1cc(C(=O)O)c(NCc2ccco2)cc1Cl [FUROSEMIDE] was tested, and the Activity [7] was “inhibitor [(at a rough estimate) 5 % of control]”.

O=C(O)[C@H]1O[C@@H](Oc2ccc([N+](=O)[O-])cc2)[C@H](O)[C@@H](O)[C@@H]1O was tested, and the Activity [8] was “is not an inhibitor [-]”.

In the case of Nc1ccc(C(=O)NCC(=O)O)cc1 [AMINOHIPPURIC ACID], the Activity [1] is reported as “substrate [+]”.

O=C(O)Cc1ccccc1Nc1c(Cl)cccc1Cl [DICLOFENAC] was tested, and the Activity [9] was “inhibitor [(at a rough estimate) 5 % of control]”.

For C[C@]12CC[C@H](OS(=O)(=O)O)CC1=CC[C@@H]1[C@@H]2CC[C@]2(C)C(=O)CC[C@@H]12 [PRASTERONE SULFURIC ACID], the Activity [10] was “inhibitor [(at a rough estimate) 15 % of control]”.

With O=C1OC(c2ccc(O)c(S(=O)(=O)[O-])c2)(c2ccc(O)c(S(=O)(=O)[O-])c2)c2c(Br)c(Br)c(Br)c(Br)c21.[Na+].[Na+] [SULFOBROMOPHTHALEIN SODIUM] the Activity [11] was “inhibitor [(at a rough estimate) <5 % of control]”.

For CC(=O)Nc1ccc(O[C@@H]2O[C@H](C(=O)O)[C@@H](O)[C@H](O)[C@H]2O)cc1 [ACETAMINOPHEN GLUCURONIDE], the Activity [12] was “is not an inhibitor [-]”.

O=C(O)[C@H]1O[C@@H](Oc2cccc3ccccc23)[C@H](O)[C@@H](O)[C@@H]1O was tested, and the Activity [13] was “is not an inhibitor [-]”.

With C[C@]12CC[C@@H]3c4ccc(O)cc4CC[C@H]3[C@@H]1CC[C@@H]2O [ESTRADIOL] the Activity [14] was “is not an inhibitor [-]”.

In the case of Cc1cc(=O)oc2cc(OS(=O)(=O)O)ccc12, the Activity [15] is reported as “inhibitor [(at a rough estimate) 40 % of control]”.

For CC(C)Cc1ccc(C(C)C(=O)O)cc1 (stereo unspecified) [IBUPROFEN], the Activity [16] was “inhibitor [(at a rough estimate) 10 % of control]”.

With COc1ccc2c(c1)c(CC(=O)O)c(C)n2C(=O)c1ccc(Cl)cc1 [INDOMETHACIN] the Activity [17] was “inhibitor [(at a rough estimate) 5 % of control]”.

With C[C@]12CC[C@@H]3c4ccc(O[C@@H]5O[C@H](C(=O)O)[C@@H](O)[C@H](O)[C@H]5O)cc4CC[C@H]3[C@@H]1CC[C@@H]2O the Activity [18] was “is not an inhibitor [-]”.

B1: Solute carrier family 22 member 11 (Homo sapiens) (protein)
chain: MAFSKLLEQAGGVGLFQTLQVLTFILPCLMIPSQMLLENFSAAIPGHRCWTHMLDNGSAVSTNMTPKALLTISIPPGPNQGPHQCRRFRQPQWQLLDPNATATSWSEADTEPCVDGWVYDRSVFTSTIVAKWDLVCSSQGLKPLSQSIFMSGILVGSFIWGLLSYRFGRKPMLSWCCLQLAVAGTSTIFAPTFVIYCGLRFVAAFGMAGIFLSSLTLMVEWTTTSRRAVTMTVVGCAFSAGQAALGGLAFALRDWRTLQLAASVPFFAISLISWWLPESARWLIIKGKPDQALQELRKVARINGHKEAKNLTIEVLMSSVKEEVASAKEPRSVLDLFCVPVLRWRSCAMLVVNFSLLISYYGLVFDLQSLGRDIFLLQALFGAVDFLGRATTALLLSFLGRRTIQAGSQAMAGLAILANMLVPQDLQTLRVVFAVLGKGCFGISLTCLTIYKAELFPTPVRMTADGILHTVGRLGAMMGPLILMSRQALPLLPPLLYGVISIASSLVVLFFLPETQGLPLPDTIQDLESQKSTAAQGNRQEAVTVESTSL
Molecule B1 has a Km [19] of 0.63 µM and a Km [20] of 1.01 µM.
